Patent publication US20210122730A1, “GLUCOCORTICOID RECEPTOR MODULATORS” (ORIC Pharmaceuticals, Inc., priority 2017, published 2021)

Assays:
GR = target: T1, GR (Homo sapiens, UniProt P04150); test: In Vitro GR Luciferase Reporter Assay (antagonist mode, CHO-K1-GR-MMTV-Luc reporter cells); type: cell-based
T1 construct: expressed in transfected cells; host or cells: CHO-K1
T1 sequence (P04150 1-777): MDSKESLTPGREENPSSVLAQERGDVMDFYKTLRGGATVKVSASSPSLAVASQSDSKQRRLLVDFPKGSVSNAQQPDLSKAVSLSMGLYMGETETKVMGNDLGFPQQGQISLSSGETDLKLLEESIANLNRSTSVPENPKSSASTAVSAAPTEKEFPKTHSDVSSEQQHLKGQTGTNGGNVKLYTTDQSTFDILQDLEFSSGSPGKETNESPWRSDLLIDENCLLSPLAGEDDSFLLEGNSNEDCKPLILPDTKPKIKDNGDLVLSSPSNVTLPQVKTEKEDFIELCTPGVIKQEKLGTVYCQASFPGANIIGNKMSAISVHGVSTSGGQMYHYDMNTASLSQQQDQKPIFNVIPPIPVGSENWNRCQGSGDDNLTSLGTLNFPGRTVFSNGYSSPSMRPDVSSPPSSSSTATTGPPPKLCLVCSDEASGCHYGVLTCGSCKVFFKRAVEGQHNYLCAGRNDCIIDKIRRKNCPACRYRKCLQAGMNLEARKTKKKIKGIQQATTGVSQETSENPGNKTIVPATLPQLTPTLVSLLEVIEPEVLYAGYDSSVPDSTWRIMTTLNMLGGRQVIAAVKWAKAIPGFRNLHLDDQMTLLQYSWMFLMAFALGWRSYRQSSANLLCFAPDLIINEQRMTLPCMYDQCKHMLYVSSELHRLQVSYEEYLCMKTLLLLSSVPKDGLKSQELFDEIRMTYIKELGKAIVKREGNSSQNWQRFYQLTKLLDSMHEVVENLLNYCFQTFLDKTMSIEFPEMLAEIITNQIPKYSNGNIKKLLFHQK
Outline: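 CHO-K1-GR-MMTV-Luc cells in phenol red-free DMEM with 10% CSS, stimulated with 10 nM dexamethasone (final) and treated with 8-point 1:5 compound dilutions for about 18-24 h at 37° C. Luciferase measured by OneGlo luminescence; IC50 derived for inhibition of GR activity.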

CYP2C8 = target: T2, CYP2C8 (Homo sapiens, UniProt P10632); test: CYP Inhibition Assay (CYP2C8, human liver microsomes, paclitaxel substrate); type: in vitro ADME; conditions: pH 7.4; pooled human liver microsomes 0.1 mg/mL, probe substrate paclitaxel
T2 construct: Pooled human microsomes were obtained from Sekisui XenoTech, KS; tissue Sekisui XenoTech, KS; host or cells: pooled human liver microsomes
T2 sequence (P10632 1-490): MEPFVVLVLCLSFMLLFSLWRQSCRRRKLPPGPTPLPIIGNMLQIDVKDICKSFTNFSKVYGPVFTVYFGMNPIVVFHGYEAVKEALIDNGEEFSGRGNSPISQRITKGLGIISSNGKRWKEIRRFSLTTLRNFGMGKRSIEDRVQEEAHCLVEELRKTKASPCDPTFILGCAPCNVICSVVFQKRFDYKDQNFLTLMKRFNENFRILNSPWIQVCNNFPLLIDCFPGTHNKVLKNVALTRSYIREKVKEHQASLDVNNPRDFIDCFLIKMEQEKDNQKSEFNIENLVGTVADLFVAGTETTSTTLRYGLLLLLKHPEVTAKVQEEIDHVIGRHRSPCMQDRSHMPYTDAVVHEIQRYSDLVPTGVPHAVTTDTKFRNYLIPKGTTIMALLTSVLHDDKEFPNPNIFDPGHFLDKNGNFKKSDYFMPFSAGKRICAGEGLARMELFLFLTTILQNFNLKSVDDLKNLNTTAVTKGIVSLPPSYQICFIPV
Experimental: Example B: CYP Inhibition Assay
Objective: To assess the % inhibition of test compounds against CYP2C8 enzyme in human liver microsomes.
Pooled human microsomes were obtained from Sekisui XenoTech, KS, and were used for in vitro assessment of compound inhibitory potential of the major drug metabolizing human CYP enzymes.
Test compounds were dissolved in DMSO as 10 mM stock solutions and diluted to 200 µM in acetonitrile as working solutions. The total concentrations of DMSO and acetonitrile were 0.02% and 0.5%, respectively, in the assay.
The assay was performed in duplicate in a 96-well plate. The reaction mixture ([…]) containing a final concentration of 0.1 mg/mL pooled human liver microsomes, 50 mM potassium phosphate, pH 7.4 buffer, was re-warmed at 37° C. for 5 minutes. The reaction was initiated with NADPH solution which was at 1 mM final concentration, and carried out for 5 minutes at 37° C. It was terminated by the addition of 3-fold volume of quench solution (1:1 acetonitrile:methanol with 0.1% formic acid and the internal standard of tolbutamide). The sample was vortexed, centrifuged at 4,000 rpm for 15 min at 4° C. The incubation in the presence of vehicle (0.02% DMSO and 0.5% acetonitrile) was used as the enzyme activity control. The analyses of metabolite 6α-hydroxypaclitaxel in supernatant was performed with LC-MS/MS method (Sciex API 4500 Qtrap coupled to a Shimadzu LC-20AD HPLC).
The CYP enzyme activity was determined based on the formation of 6a-hydroxypaclitaxel metabolite. The % inhibition was calculated using this equation: % Inhibition=100×(1−Ainactivator/Avehicle), where Ainactivator is the CYP enzyme activity in the presence of test compound, and Avehicle is the CYP activity in the presence of vehicle.

[1] = antagonist mode, 10 nM Dexamethasone

| IC50 (GR; [1]) [µM] | inhibition at 5 min (CYP2C8) [%] | IC50 (GR; antagonist assay with 10 nM Dexamethasone, 18-24 hours) [µM] | SMILES |
| --- | --- | --- | --- |
| ≤ 0.1 | 50 to 75 |  | Cn1ncc(S(=O)(=O)N(CC2CC2)[C@H]2CCC3=Cc4c(cnn4-c4ccc(F)cc4)C[C@]3(C(=O)c3ncc(C(F)(F)F)s3)C2)n1 [Example 194, N-(cyclopropylmethyl)-N-((4aS,6S)-1-(4-fluorophenyl)-4a-(5-(trifluoromethyl)thiazole-2-carbonyl)-4,4a,5,6,7,8-hexahydro-1H-benzo[f]indazol-6-yl)-2-methyl-2H-1,2,3-triazole-4-sulfonamide] |
| ≤ 0.1 | 25 to 50 |  | CC(C)CN([C@H]1CCC2=Cc3c(cnn3-c3ccc(F)cc3)C[C@]2(C(=O)c2ncc(C(F)(F)F)s2)C1)S(=O)(=O)c1ccn(C)n1 [Example 212, N-((4aS,6S)-1-(4-fluorophenyl)-4a-(5-(trifluoromethyl)thiazole-2-carbonyl)-4,4a,5,6,7,8-hexahydro-1H-benzo[f]indazol-6-yl)-N-isobutyl-1-methyl-1H-pyrazole-3-sulfonamide] |
| ≤ 0.1 | 25 to 50 |  | CCN([C@H]1CCC2=Cc3c(cnn3-c3ccc(F)cc3)C[C@]2(C(=O)c2cc(Cl)ccn2)C1)S(=O)(=O)c1ncn(C)n1 [Example 359, N-((4aS,6S)-4a-(4-chloropicolinoyl)-1-(4-fluorophenyl)-4,4a,5,6,7,8-hexahydro-1H-benzo[f]indazol-6-yl)-N-ethyl-1-methyl-1H-1,2,4-triazole-3-sulfonamide] |
| ≤ 0.1 | 25 to 50 |  | Cn1cnc(S(=O)(=O)N(C2CC(F)(F)C2)[C@H]2CCC3=Cc4c(cnn4-c4ccc(F)cc4)C[C@]3(C(=O)c3cc(F)ccn3)C2)n1 [Example 354, N-(3,3-difluorocyclobutyl)-N-((4aS,6S)-1-(4-fluorophenyl)-4a-(4-fluoropicolinoyl)-4,4a,5,6,7,8-hexahydro-1H-benzo[f]indazol-6-yl)-1-methyl-1H-1,2,4-triazole-3-sulfonamide] |
|  | 50 to 75 | 0.1 to 1 | CN([C@H]1CCC2=Cc3c(cnn3-c3ccc(F)cc3)C[C@]2(C(=O)c2ccc(C(F)(F)F)cn2)C1)S(=O)(=O)c1cnn(C)n1 [Example 104, N-((4aS,6S)-1-(4-fluorophenyl)-4a-(5-(trifluoromethyl)picolinoyl)-4,4a,5,6,7,8-hexahydro-1H-benzo[f]indazol-6-yl)-N,2-dimethyl-2H-1,2,3-triazole-4-sulfonamide] |
| ≤ 0.1 | 50 to 75 |  | O=C(c1cc(F)ccn1)[C@]12Cc3cnn(-c4ccc(F)cc4)c3C=C1CC[C@H](N(CC1CC1)S(=O)(=O)c1ccc(Cl)nc1)C2 [Example 319, 6-chloro-N-(cyclopropylmethyl)-N-((4aS,6S)-1-(4-fluorophenyl)-4a-(4-fluoropicolinoyl)-4,4a,5,6,7,8-hexahydro-1H-benzo[f]indazol-6-yl)pyridine-3-sulfonamide] |
| ≤ 0.1 | 25 to 50 |  | O=C(c1ncc(C(F)(F)F)s1)[C@]12Cc3cnn(-c4ccc(F)cc4)c3C=C1CC[C@H](N(CC(F)(F)F)S(=O)(=O)c1ccc(Cl)nc1)C2 [Example 312, 6-chloro-N-((4aS,6S)-1-(4-fluorophenyl)-4a-(5-(trifluoromethyl)thiazole-2-carbonyl)-4,4a,5,6,7,8-hexahydro-1H-benzo[f]indazol-6-yl)-N-(2,2,2-trifluoroethyl)pyridine-3-sulfonamide] |
| ≤ 0.1 | 25 to 50 |  | CCN([C@H]1CCC2=Cc3c(cnn3-c3ccc(F)cc3)C[C@]2(C(=O)c2cc(C(F)(F)F)ccn2)C1)S(=O)(=O)c1cnn(C(F)F)c1 [Example 166, 1-(difluoromethyl)-N-ethyl-N-((4aS,6S)-1-(4-fluorophenyl)-4a-(4-(trifluoromethyl)picolinoyl)-4,4a,5,6,7,8-hexahydro-1H-benzo[f]indazol-6-yl)-1H-pyrazole-4-sulfonamide] |
| ≤ 0.1 | 25 to 50 |  | CC(C)N([C@H]1CCC2=Cc3c(cnn3-c3ccc(F)cc3)C[C@]2(C(=O)c2cc(F)ccn2)C1)S(=O)(=O)c1ccc(Cl)nc1 [Example 322, 6-chloro-N-((4aS,6S)-1-(4-fluorophenyl)-4a-(4-fluoropicolinoyl)-4,4a,5,6,7,8-hexahydro-1H-benzo[f]indazol-6-yl)-N-isopropylpyridine-3-sulfonamide] |
| ≤ 0.1 | ≤ 25 |  | Cn1cnc(S(=O)(=O)N(C2CC(F)(F)C2)[C@H]2CCC3=Cc4c(cnn4-c4ccc(F)cc4)C[C@]3(C(=O)c3ncc(C(F)(F)F)s3)C2)c1 [Example 332, N-(3,3-difluorocyclobutyl)-N-((4aS,6S)-1-(4-fluorophenyl)-4a-(5-(trifluoromethyl)thiazole-2-carbonyl)-4,4a,5,6,7,8-hexahydro-1H-benzo[f]indazol-6-yl)-1-methyl-1H-imidazole-4-sulfonamide] |
| ≤ 0.1 | 75 to 90 |  | CN([C@H]1CCC2=Cc3c(cnn3-c3ccc(F)cc3)C[C@]2(C(=O)c2ncc(C3CC3)s2)C1)S(=O)(=O)c1ccn(C)n1 [Example 140, N-((4aS,6S)-4a-(5-cyclopropylthiazole-2-carbonyl)-1-(4-fluorophenyl)-4,4a,5,6,7,8-hexahydro-1H-benzo[f]indazol-6-yl)-N,1-dimethyl-1H-pyrazole-3-sulfonamide] |
| ≤ 0.1 | 25 to 50 |  | Cn1cnc(S(=O)(=O)N(C2CC2)[C@H]2CCC3=Cc4c(cnn4-c4ccc(F)cc4)C[C@]3(C(=O)c3cc(Cl)ccn3)C2)c1 [Example 363, N-((4aS,6S)-4a-(4-chloropicolinoyl)-1-(4-fluorophenyl)-4,4a,5,6,7,8-hexahydro-1H-benzo[f]indazol-6-yl)-N-cyclopropyl-1-methyl-1H-imidazole-4-sulfonamide] |
| ≤ 0.1 | 75 to 90 |  | CC(C)N([C@H]1CCC2=Cc3c(cnn3-c3ccc(F)cc3)C[C@]2(C(=O)c2ncc(C(F)(F)F)s2)C1)S(=O)(=O)c1cnn(C)n1 [Example 233, N-((4aS,6S)-1-(4-fluorophenyl)-4a-(5-(trifluoromethyl)thiazole-2-carbonyl)-4,4a,5,6,7,8-hexahydro-1H-benzo[f]indazol-6-yl)-N-isopropyl-2-methyl-2H-1,2,3-triazole-4-sulfonamide] |
| ≤ 0.1 | ≤ 25 |  | O=C(c1ncc(C(F)(F)F)s1)[C@]12Cc3cnn(-c4ccc(F)cc4)c3C=C1CC[C@H](N(C1CC1)S(=O)(=O)c1ccc(Cl)cn1)C2 [Example 333, 5-chloro-N-cyclopropyl-N-((4aS,6S)-1-(4-fluorophenyl)-4a-(5-(trifluoromethyl)thiazole-2-carbonyl)-4,4a,5,6,7,8-hexahydro-1H-benzo[f]indazol-6-yl)pyridine-2-sulfonamide] |
